Data: PubChem BioAssay AID248 (DTP/NCI, 2004)
Inconclusive results and toxic doses are left out. No stated cut-off is given here; in the data, active means T/C of 150% or more; inactive means T/C below 125%.

Test system: L1210 leukemia ip in BDF1 mice, survival T/C
Assay: NCI In Vivo Anticancer Drug Screen. Data for tumor model L1210 Leukemia (intraperitoneal) in B6D2F1 (BDF1) mice
Conditions: higher = longer survival
Outline: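 Read-out is survival time, reported as the treated-group measurement over the vehicle-control measurement.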

Measured: T/C

O=C1/C(=C/c2ccccn2)COc2ccccc21
inactive: endpoint: mean survival time, dose: 100.0 mg/kg/injection, schedule: Q04DX003 (ip), vehicle: carboxymethylcellulose (CMC) 93 % of control | endpoint: mean survival time, dose: 200.0 mg/kg/injection, schedule: Q04DX003 (ip), vehicle: carboxymethylcellulose (CMC) 95 % of control | endpoint: mean survival time, dose: 400.0 mg/kg/injection, schedule: Q04DX003 (ip), vehicle: carboxymethylcellulose (CMC) 103 % of control

COc1ccc(C[C@H](N)C(=O)NC2C(CO)OC(n3cnc4c(N(C)C)ncnc43)C2O)cc1 (stereo partly specified)
inactive: endpoint: mean survival time, dose: 5.0 mg/kg/injection, schedule: Q01DX001 (ip), vehicle: saline 103 % of control | endpoint: mean survival time, dose: 9.94 mg/kg/injection, schedule: Q01DX Z (ip), vehicle: carboxymethylcellulose (CMC) 108 % of control | endpoint: mean survival time, dose: 10.0 mg/kg/injection, schedule: Q01DX001 (ip), vehicle: saline 97 % of control | endpoint: mean survival time, dose: 19.88 mg/kg/injection, schedule: Q01DX Z (ip), vehicle: carboxymethylcellulose (CMC) 117 % of control | endpoint: mean survival time, dose: 20.0 mg/kg/injection, schedule: Q01DX001 (ip), vehicle: saline 95 % of control | endpoint: mean survival time, dose: 39.75 mg/kg/injection, schedule: Q01DX Z (ip), vehicle: carboxymethylcellulose (CMC) 112 % of control | endpoint: mean survival time, dose: 40.0 mg/kg/injection, schedule: Q01DX001 (ip), vehicle: saline 110 % of control | endpoint: mean survival time, dose: 79.5 mg/kg/injection, schedule: Q01DX Z (ip), vehicle: carboxymethylcellulose (CMC) 113 % of control | endpoint: mean survival time, dose: 80.0 mg/kg/injection, schedule: Q01DX001 (ip), vehicle: saline 100 % of control | endpoint: median survival time, dose: 25.0 mg/kg/injection, schedule: Q04DX003 (ip), vehicle: saline 95 % of control | endpoint: median survival time, dose: 50.0 mg/kg/injection, schedule: Q04DX003 (ip), vehicle: saline 107 % of control | endpoint: median survival time, dose: 100.0 mg/kg/injection, schedule: Q04DX003 (ip), vehicle: saline 108 % of control | endpoint: median survival time, dose: 200.0 mg/kg/injection, schedule: Q04DX003 (ip), vehicle: saline 106 % of control

NC(N)=N/C(N)=N/NC(=O)c1ccncc1
inactive: endpoint: mean survival time, dose: 66.0 mg/kg/injection, schedule: Q01DX Z (ip), vehicle: methylcellulose (MC) 100 % of control | endpoint: mean survival time, dose: 93.0 mg/kg/injection, schedule: Q01DX Z (ip), vehicle: methylcellulose (MC) 89 % of control | endpoint: mean survival time, dose: 140.0 mg/kg/injection, schedule: Q01DX Z (ip), vehicle: methylcellulose (MC) 91 % of control

C[C@]12CC[C@@H]3c4ccc(O)cc4CC[C@H]3[C@@H]1CC[C@@H]2O
inactive: endpoint: mean survival time, dose: 500.0 mg/kg/injection, schedule: Q01DX Z (sc), vehicle: water 93 % of control | endpoint: mean survival time, dose: 1000.0 mg/kg/injection, schedule: Q01DX Z (sc), vehicle: water 90 % of control

CC(=O)Nc1ccccc1C(C)=O
inactive: endpoint: mean survival time, dose: 100.0 mg/kg/injection, schedule: Q04DX003 (ip), vehicle: saline with Tween-80 92 % of control | endpoint: mean survival time, dose: 200.0 mg/kg/injection, schedule: Q04DX003 (ip), vehicle: saline with Tween-80 93 % of control | endpoint: mean survival time, dose: 400.0 mg/kg/injection, schedule: Q04DX003 (ip), vehicle: saline with Tween-80 93 % of control

NC1C(O)C(O)C(Nc2ncnc3nc[nH]c23)OC1C(O)CO (stereo unspecified)
inactive: endpoint: mean survival time, dose: 0.44 mg/kg/injection, schedule: Q## X000 (ip), vehicle: carboxymethylcellulose (CMC) 98 % of control | endpoint: mean survival time, dose: 0.66 mg/kg/injection, schedule: Q## X000 (ip), vehicle: carboxymethylcellulose (CMC) 100 % of control | endpoint: mean survival time, dose: 1.0 mg/kg/injection, schedule: Q## X000 (ip), vehicle: carboxymethylcellulose (CMC) 100 % of control | endpoint: mean survival time, dose: 1.5 mg/kg/injection, schedule: Q01DX009 (ip), vehicle: saline 104 % of control | endpoint: mean survival time, dose: 1.5 mg/kg/injection, schedule: Q## X000 (ip), vehicle: carboxymethylcellulose (CMC) 100 % of control | endpoint: mean survival time, dose: 3.0 mg/kg/injection, schedule: Q01DX001 (ip), vehicle: saline 107 % of control | endpoint: mean survival time, dose: 3.0 mg/kg/injection, schedule: Q01DX009 (ip), vehicle: saline 103 % of control | endpoint: mean survival time, dose: 6.0 mg/kg/injection, schedule: Q01DX001 (ip), vehicle: saline 107 % of control | endpoint: mean survival time, dose: 6.0 mg/kg/injection, schedule: Q01DX009 (ip), vehicle: saline 101 % of control | endpoint: mean survival time, dose: 12.0 mg/kg/injection, schedule: Q01DX001 (ip), vehicle: saline 107 % of control | endpoint: mean survival time, dose: 12.0 mg/kg/injection, schedule: Q01DX009 (ip), vehicle: saline 98 % of control | endpoint: mean survival time, dose: 24.0 mg/kg/injection, schedule: Q01DX001 (ip), vehicle: saline 104 % of control | endpoint: mean survival time, dose: 24.0 mg/kg/injection, schedule: Q01DX009 (ip), vehicle: saline 101 % of control | endpoint: mean survival time, dose: 35.0 mg/kg/injection, schedule: Q01DX009 (ip), vehicle: saline 95 % of control | endpoint: mean survival time, dose: 48.0 mg/kg/injection, schedule: Q01DX001 (ip), vehicle: saline 103 % of control | endpoint: mean survival time, dose: 55.0 mg/kg/injection, schedule: Q01DX009 (ip), vehicle: saline 97 % of control | endpoint: mean survival time, dose: 75.0 mg/kg/injection, schedule: Q01DX001 (ip), vehicle: saline 96 % of control | endpoint: mean survival time, dose: 80.0 mg/kg/injection, schedule: Q01DX009 (ip), vehicle: saline 97 % of control | endpoint: mean survival time, dose: 110.0 mg/kg/injection, schedule: Q01DX001 (ip), vehicle: saline 98 % of control | endpoint: mean survival time, dose: 165.0 mg/kg/injection, schedule: Q01DX001 (ip), vehicle: saline 101 % of control | endpoint: mean survival time, dose: 245.0 mg/kg/injection, schedule: Q01DX001 (ip), vehicle: saline 95 % of control | endpoint: mean survival time, dose: 370.0 mg/kg/injection, schedule: Q01DX001 (ip), vehicle: saline 103 % of control
